Data taken from ChEMBL document CHEMBL1201862, “PubChem BioAssay data set” (2004).
Activity calls are given as the source filed them.

What was measured:
[1] = biological target: Dual specificity tyrosine-phosphorylation-regulated kinase 1A (Rattus norvegicus, UniProt Q63470); assay type: biochemical, Homo sapiens
[2] = biological target: T1, Rac GTPase-activating protein 1 (Homo sapiens, UniProt Q9H0H5); assay: blockers of MgcRacGAP-driven Rac1 GTP hydrolysis – biochemical, ADP Hunter fluorescence, primary and confirmatory, confirmation (AID 624330); assay type: functional
T1 sequence (Q9H0H5 whole entry): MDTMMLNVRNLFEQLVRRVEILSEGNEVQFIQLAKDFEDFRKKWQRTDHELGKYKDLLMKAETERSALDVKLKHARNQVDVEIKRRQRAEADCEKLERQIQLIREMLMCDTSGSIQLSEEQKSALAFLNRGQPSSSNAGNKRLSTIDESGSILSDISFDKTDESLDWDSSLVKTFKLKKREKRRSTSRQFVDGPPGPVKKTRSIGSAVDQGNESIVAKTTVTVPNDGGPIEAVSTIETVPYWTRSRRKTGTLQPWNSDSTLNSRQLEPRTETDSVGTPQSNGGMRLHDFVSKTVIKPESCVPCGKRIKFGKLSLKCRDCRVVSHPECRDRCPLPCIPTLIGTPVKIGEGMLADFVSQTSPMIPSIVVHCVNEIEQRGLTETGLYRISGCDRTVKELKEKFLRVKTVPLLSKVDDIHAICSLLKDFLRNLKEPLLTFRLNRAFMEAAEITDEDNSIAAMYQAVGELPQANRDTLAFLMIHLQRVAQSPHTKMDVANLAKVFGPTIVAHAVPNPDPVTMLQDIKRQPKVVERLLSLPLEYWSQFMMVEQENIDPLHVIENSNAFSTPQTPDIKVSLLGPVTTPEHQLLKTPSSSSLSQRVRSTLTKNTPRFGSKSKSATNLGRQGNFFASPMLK

[3] = NIH-3T3 fibroblast cytotoxicity, dose response, cytotoxicity control, cell-based, fluorescence, Alamar Blue, secondary assay (AID 2327); assay type: functional;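 further: NIH-3T3 mouse fibroblasts cultured with fluconazole at 8 µg/mL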
[4] = fluconazole-exposed Candida albicans growth modulators – fluorescence, retest, confirmation (AID 2467); assay type: functional, cell-based
[5] = biological target: T2, Serine/threonine-protein phosphatase (Candida dubliniensis (strain CD36 / CBS 7987 / NCPF 3949 / NRRLY-17841) (Yeast), UniProt B9W6M3); assay: blockers of CaCl2-induced CDRE-lacZ signaling – S. cerevisiae, luminescence, secondary, dose response (AID 2388); assay type: functional, cell-based;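 further: yeast reporter cells carrying a calcineurin-responsive lacZ construct stimulated with calcium chloride; luminescent beta-galactosidase reporter signal in whole cells rather than isolated phosphatase activity; potency for inhibition where a drop in reporter signal means calcineurin blockade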
T2 sequence (B9W6M3 whole entry): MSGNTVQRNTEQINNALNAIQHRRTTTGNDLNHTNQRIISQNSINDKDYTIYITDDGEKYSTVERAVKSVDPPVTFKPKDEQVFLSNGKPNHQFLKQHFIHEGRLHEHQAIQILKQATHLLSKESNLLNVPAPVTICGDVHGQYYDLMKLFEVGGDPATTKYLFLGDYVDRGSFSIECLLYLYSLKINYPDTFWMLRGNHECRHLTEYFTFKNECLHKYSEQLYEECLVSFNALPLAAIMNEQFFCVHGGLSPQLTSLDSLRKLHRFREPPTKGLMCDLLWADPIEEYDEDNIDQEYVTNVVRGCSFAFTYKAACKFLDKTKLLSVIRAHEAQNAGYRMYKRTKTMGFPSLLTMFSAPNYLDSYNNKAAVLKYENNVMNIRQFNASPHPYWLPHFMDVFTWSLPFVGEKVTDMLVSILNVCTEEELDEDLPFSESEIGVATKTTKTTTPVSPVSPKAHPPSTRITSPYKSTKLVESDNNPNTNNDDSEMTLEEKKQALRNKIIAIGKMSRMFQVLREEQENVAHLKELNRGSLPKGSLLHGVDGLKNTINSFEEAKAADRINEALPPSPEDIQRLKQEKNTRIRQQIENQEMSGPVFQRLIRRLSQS

[6] = Luminescence Cell-Based Dose Retest to Confirm Inhibitors of Cancer Stem Cells. [Related pubchem assays (depositor defined):AID2717, AID2721]; assay type: functional; conditions: Homo sapiens
[7] = biological target: Heat shock protein HSP 90-alpha (Homo sapiens, UniProt P07900); assay type: functional, organism-based
[8] = biological target: T2, Serine/threonine-protein phosphatase; assay: Fluorescence Cell-Based Secondary Assay to Identify Inhibitors of Calcineurin. [Related pubchem assays (depositor defined):AID1979, AID2007]; assay type: functional
[9] = biological target: T3, Short transient receptor potential channel 4 (Mus musculus, UniProt Q9QUQ5); assay: calcium entry via TRPC4 opening agents – cell-based, HEK293 TRPC4/mu-opioid, Fluo-4 calcium, dose response (AID 434937); assay type: functional
T3 sequence (Q9QUQ5 whole entry): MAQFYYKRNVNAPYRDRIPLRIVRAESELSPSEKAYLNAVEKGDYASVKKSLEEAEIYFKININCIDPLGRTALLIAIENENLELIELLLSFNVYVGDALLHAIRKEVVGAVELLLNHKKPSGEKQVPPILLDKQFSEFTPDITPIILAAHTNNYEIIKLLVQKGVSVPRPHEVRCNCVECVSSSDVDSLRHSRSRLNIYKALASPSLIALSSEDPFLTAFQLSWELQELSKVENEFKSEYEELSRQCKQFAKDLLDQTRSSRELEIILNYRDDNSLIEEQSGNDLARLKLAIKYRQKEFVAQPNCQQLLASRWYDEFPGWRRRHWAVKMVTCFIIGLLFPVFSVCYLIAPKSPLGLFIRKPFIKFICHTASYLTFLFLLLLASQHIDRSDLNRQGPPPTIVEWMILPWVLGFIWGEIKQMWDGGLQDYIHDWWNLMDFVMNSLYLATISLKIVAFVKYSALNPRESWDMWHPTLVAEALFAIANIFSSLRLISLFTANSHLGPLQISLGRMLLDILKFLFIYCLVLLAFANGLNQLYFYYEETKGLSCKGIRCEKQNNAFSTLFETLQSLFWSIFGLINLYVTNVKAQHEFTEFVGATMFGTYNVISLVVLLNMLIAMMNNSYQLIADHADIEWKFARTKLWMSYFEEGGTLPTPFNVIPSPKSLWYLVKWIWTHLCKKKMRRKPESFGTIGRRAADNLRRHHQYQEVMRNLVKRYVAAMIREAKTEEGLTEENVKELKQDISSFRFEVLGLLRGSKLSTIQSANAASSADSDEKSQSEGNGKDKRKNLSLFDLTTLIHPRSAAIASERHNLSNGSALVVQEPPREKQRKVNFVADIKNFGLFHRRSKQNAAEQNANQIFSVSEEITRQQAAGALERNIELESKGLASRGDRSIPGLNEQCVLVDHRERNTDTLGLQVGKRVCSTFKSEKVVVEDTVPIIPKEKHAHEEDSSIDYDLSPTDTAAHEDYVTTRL

[10] = biological target: Delta-type opioid receptor (Homo sapiens, UniProt P41143); assay: Counterscreen for agonists of heterodimerization of the mu 1 (OPRM1) and delta 1 (OPRD1) opioid receptors: Luminescence-based cell-based high throughput dose response assay to identify agonists of OPRD1 homodimerization. [Related pubchem assays (depositor defined):AID504326, AID504355, AID504692, AID504904, AID504905]; assay type: functional
[11] = biological target: Mu-type opioid receptor (Homo sapiens, UniProt P35372); assay: Counterscreen for agonists of heterodimerization of the mu 1 (OPRM1) and delta 1 (OPRD1) opioid receptors: Luminescence-based cell-based high throughput dose response assay to identify agonists of OPRM1 homodimerization.; assay type: functional;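 further: U2OS cells expressing OPRM1 and beta-arrestin as split beta-galactosidase partners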
[12] = biological target: Opioid receptors; mu & delta (Homo sapiens, UniProt P41143+P35372); assay: OPRM1-OPRD1 heterodimer agonist potency – cell-based, luminescence, dose response (AID 588407); assay type: functional
[13] = biological target: 5-hydroxytryptamine receptor 5A (Homo sapiens, UniProt P47898); assay: Counterscreen for agonists of OPRM1-OPRD1 heterodimerization: luminescence-based cell-based high throughput dose response assay to identify agonists of 5-hydroxytryptamine (serotonin) 5A receptor (HTR5A). [Related pubchem assays (depositor defined):AID504326, AID504355, AID504692, AID504904, AID504905]; assay type: functional
[14] = Luminescence Cell-Based/Microorganism Confirmation at Dose of Inhibitors of Trypanosoma cruzi Infection. [Related pubchem assays: 1885, 1968 ]; assay type: functional
[15] = Trypanosoma cruzi growth suppression in host cells – NIH3T3 host cells, beta-gal luminescence, confirmation (AID 2044); assay type: functional, cell-based;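 further: intracellular parasites grown in NIH/3T3 mouse fibroblasts as host cells; luminescent beta-galactosidase reporter signal from transgenic T. cruzi replicating inside host cells; inhibitors lower the luminescence signal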
[16] = Luminescence Cell-Based Secondary HTS screen to identify cytotoxic compounds of NIH3T3 cells. [Related pubchem assays: 1885, 1968 ]; assay type: functional
[17] = NIH3T3 cell viability loss – ATP luminescence, mouse fibroblasts, counter-screen, dose response (AID 2010); assay type: functional, cell-based;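 further: cells exposed to compound for about 90 hours before reading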
[18] = T. cruzi infection blockers in NIH3T3 cells – beta-gal luminescence, NIH3T3 host cells, confirmation (AID 2630); assay type: functional, cell-based; conditions: Mus musculus
[19] = cells
[20] = biological target: Dual specificity protein kinase CLK1 (Homo sapiens, UniProt P49759); assay: inhibition of human CLK1 activity – biochemical, cherry-picked samples, selectivity assay for Dyrk1A inhibitor project, dose response (AID 588811)
[21] = system: Streptococcus sp. 'group A'; assay: Streptococcus pyogenes SK(-)GAS viability under kanamycin – luminescence, BacTiterGlo, confirmation, counter-screen for streptokinase expression inhibitor project, dose response (AID 1900); assay type: functional, organism-based
[22] = system: Streptococcus; assay: GAS UMAA2166 growth inhibition – luminescence, BacTiterGlo, counter-screen for streptokinase expression inhibitor project, dose response (AID 1915); assay type: functional, organism-based;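 further: potency for reduction of bacterial viability or growth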
[23] = viability loss of HMLE_sh_eGFP cells – cell-based, luminescence, counter-screen for HMLE_sh_ECad selective toxicity project, dose response (AID 463074); assay type: functional, Homo sapiens;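 further: HMLE human mammary epithelial cells expressing control shRNA against eGFP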
[24] = biological target: Cytochrome P450 2C19 (Homo sapiens, UniProt P33261); assay: Cytochrome panel assay with activity outcomes. Panel member name: p450-cyp2c19 Compounds with AC50 equal or less than 10 uM are considered active; assay type: functional
[25] = biological target: Cytochrome P450 3A4 (Homo sapiens, UniProt P08684);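 further: CYP3A4 tested as one member of a cytochrome P450 panel screen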
[26] = biological target: Cytochrome P450 2D6 (Homo sapiens, UniProt P10635);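 further: CYP2D6 member of a cytochrome P450 panel assay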
[27] = biological target: T4, Cytochrome P450 1A2 (Homo sapiens, UniProt P05177);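 further: PubChem cytochrome P450 panel assay, CYP1A2 panel member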
T4 sequence (P05177 whole entry): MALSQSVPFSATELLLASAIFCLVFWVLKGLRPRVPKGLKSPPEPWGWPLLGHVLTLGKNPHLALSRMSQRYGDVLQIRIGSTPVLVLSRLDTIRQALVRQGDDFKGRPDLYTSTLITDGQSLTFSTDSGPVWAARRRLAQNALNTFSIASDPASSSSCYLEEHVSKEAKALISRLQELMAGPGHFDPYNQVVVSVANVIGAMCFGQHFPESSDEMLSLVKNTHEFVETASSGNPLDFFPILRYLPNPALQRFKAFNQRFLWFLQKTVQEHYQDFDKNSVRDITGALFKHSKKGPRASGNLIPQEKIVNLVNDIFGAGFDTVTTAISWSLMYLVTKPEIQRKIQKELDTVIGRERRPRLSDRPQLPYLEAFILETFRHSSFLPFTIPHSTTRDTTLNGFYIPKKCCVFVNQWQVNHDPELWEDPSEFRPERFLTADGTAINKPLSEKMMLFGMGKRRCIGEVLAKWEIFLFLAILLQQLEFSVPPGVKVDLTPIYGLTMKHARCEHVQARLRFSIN

[28] = biological target: Cytochrome P450 2C9 (Homo sapiens, UniProt P11712)
Cytochrome P450 2C9, sequence (P11712 whole entry): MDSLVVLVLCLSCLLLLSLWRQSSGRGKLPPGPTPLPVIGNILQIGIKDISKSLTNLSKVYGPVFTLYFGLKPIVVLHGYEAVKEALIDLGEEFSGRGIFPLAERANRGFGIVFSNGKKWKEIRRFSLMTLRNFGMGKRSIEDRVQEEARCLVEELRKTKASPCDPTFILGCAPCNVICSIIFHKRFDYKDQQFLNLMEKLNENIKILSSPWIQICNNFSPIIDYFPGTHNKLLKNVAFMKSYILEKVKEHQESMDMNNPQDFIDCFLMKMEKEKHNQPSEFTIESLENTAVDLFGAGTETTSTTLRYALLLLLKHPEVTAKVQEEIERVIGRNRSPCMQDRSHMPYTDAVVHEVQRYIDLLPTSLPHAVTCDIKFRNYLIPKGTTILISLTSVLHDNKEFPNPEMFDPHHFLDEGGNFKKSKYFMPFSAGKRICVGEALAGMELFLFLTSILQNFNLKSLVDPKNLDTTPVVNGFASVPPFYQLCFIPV

Mu-type opioid receptor, sequence (P35372 whole entry): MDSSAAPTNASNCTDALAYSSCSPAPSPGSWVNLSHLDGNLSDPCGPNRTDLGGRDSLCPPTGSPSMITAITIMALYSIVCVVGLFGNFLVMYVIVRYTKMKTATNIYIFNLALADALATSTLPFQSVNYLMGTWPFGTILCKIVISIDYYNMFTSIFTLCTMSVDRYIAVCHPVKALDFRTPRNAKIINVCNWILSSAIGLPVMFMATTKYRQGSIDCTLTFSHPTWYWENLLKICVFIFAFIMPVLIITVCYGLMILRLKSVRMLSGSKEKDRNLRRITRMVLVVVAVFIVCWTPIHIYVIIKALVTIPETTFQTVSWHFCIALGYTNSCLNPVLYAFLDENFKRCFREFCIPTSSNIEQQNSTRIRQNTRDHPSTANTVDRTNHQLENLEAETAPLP
Delta-type opioid receptor, sequence (P41143 whole entry): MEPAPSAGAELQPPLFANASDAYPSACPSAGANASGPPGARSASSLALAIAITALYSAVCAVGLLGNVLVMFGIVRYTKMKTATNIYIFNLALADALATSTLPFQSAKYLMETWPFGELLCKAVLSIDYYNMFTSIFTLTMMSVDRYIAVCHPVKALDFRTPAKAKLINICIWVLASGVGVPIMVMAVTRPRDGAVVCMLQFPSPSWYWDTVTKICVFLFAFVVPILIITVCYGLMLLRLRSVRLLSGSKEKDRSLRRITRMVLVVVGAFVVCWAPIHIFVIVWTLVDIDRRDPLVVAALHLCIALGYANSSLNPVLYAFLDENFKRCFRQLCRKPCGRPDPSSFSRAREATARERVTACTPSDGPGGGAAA
Cytochrome P450 2C19, sequence (P33261 whole entry): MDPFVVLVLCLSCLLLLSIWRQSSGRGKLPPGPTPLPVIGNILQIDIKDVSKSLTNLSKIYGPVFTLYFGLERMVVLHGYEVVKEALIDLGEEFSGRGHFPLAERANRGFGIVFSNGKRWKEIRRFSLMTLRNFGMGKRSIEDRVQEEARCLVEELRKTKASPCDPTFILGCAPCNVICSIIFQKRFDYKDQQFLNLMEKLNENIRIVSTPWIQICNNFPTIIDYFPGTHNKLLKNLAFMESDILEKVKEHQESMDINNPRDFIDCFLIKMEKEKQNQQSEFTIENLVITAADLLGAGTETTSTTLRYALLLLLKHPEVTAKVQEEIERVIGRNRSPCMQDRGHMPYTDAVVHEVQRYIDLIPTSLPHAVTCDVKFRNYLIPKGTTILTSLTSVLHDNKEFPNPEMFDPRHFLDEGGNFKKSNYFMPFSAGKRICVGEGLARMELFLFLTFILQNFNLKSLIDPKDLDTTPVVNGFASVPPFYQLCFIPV
Dual specificity protein kinase CLK1, sequence (P49759 whole entry): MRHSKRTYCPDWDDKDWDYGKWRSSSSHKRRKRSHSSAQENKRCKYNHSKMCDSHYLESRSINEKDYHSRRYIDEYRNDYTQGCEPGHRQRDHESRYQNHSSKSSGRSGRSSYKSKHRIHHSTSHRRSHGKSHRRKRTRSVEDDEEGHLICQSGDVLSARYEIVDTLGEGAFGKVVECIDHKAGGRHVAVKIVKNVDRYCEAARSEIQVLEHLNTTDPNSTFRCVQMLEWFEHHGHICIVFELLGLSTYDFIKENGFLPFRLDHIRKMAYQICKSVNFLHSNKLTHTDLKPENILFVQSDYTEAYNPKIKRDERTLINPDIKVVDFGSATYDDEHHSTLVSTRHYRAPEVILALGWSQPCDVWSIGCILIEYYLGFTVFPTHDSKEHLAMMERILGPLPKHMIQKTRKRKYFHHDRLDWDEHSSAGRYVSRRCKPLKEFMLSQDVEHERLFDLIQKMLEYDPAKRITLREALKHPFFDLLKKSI
Cytochrome P450 3A4, sequence (P08684 whole entry): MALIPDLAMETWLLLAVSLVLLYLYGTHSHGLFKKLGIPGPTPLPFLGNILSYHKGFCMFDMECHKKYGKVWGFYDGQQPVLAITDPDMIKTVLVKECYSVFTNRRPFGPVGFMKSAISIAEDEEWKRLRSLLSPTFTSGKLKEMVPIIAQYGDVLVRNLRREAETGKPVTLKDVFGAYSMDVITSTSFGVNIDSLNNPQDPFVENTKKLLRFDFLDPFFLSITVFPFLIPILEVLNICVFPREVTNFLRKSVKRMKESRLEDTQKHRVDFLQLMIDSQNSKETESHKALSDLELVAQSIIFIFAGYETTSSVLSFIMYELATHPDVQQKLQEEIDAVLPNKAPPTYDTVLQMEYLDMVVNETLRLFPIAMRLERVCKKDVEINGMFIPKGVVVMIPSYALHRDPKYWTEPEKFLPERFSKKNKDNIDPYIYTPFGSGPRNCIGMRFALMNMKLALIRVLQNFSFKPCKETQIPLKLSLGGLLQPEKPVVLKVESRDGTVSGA
5-hydroxytryptamine receptor 5A, sequence (P47898 whole entry): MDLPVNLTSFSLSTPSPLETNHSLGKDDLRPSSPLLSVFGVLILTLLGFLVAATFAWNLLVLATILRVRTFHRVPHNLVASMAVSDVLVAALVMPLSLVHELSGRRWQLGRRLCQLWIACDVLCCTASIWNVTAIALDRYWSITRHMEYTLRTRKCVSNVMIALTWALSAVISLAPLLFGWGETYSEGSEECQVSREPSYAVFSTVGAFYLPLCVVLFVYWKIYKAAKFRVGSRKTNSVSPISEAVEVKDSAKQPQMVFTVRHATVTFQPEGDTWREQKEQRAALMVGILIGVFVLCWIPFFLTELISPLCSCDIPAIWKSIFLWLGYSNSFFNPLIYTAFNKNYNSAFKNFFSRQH
Cytochrome P450 2D6, sequence (P10635 whole entry): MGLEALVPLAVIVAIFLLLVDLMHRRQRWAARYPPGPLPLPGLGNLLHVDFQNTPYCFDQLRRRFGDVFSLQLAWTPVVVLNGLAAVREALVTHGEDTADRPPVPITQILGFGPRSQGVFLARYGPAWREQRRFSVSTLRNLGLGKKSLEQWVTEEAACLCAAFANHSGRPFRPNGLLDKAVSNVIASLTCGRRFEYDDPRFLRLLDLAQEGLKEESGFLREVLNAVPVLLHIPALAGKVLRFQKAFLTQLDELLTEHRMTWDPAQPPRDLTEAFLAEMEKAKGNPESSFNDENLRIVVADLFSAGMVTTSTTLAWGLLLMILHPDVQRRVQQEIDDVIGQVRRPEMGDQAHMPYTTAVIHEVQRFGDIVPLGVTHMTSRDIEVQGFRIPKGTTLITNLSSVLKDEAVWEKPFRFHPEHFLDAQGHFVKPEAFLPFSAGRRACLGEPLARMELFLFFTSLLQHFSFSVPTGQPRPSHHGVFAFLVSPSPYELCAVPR

Oc1ccc(-c2csc(NCc3ccco3)n2)cc1
AC50 [1]: 6.71 µM (active) | IC50 [2]: 22.1 µM (active)

O=C(NNC1=C(C(=O)C(F)(F)F)CCC1)c1ccc(Cl)cc1
EC50 [3]: 23.5 µM (active) | EC50 [4]: 0.126 µM (active) | EC50 [5]: > 180 µM (inactive) | AC50 [6]: 2.75 µM (active) | AC50 [7]: 3.37 µM (active) | EC50 [8]: 13.5 µM (active)

COc1ccc(C2Nc3ccccc3C(=O)N2Cc2ccco2)cc1COc1ccc(NC(C)=O)cc1 (centres undefined)
EC50 [9]: 0.149 µM (active) | EC50 [10]: 0.0173 µM (active) | EC50 [11]: > 92.5 µM (inactive) | EC50 [12]: > 0.01406 µM | EC50 [13]: > 92.5 µM (inactive)

CCn1ncc(CN2CCCC(C(=O)c3cccc(OC(C)C)c3)C2)c1C (centres undefined)
EC50 [14]: 0.062 µM (active) | EC50 [15]: < 0.1 µM (active) | EC50 [16]: > 195 µM (not active) | EC50 [17]: > 60 µM (inconclusive) | EC50 [18]: 0.062 µM (active) | EC50 [19]: 0.032 µM (active)

Cc1ccsc1CN(C)c1ncnc2ccc(-c3ccc(CO)o3)cc12
AC50 [20]: 0.0161 µM (active)

CCN(c1ccccc1)S(=O)(=O)c1ccc(C(=O)Nc2nnc(-c3ccco3)o2)cc1
EC50 [21]: 1.61 µM (active) | EC50 [22]: 5.63 µM (active) | AC50 [6]: 2.63 µM (active) | AC50 [23]: 32.4 µM (active)

FC(F)(F)c1cc(CN2CC[C@@]3(CCCNC3)C2)cc(C(F)(F)F)c1
AC50 [24]: inconclusive | AC50 [25]: 3.98 µM (inconclusive) | AC50 [26]: inconclusive | AC50 [27]: inconclusive | AC50 [28]: inconclusive
